Assay results: patent US20250041429A1, “COMPOUND HAVING BTK PROTEIN DEGRADATION ACTIVITY, AND MEDICAL USES THEREOF” (UBIX THERAPEUTICS, INC., priority 2021, published 2025)

Target: T1, BTK protein (Homo sapiens, UniProt Q06187)
T1 construct: endogenous in cells; host or cells: TMD-8 cells
Assay: Measurement of BTK protein degradation ability in TMD-8 cells (Western blotting)
Type: cell-based
Conditions: harvested after 24 hours; for BTK degradation (%) 1 nM: compound 1 nM; for BTK degradation (%) 10 nM: compound 10 nM; for BTK degradation (%) 100 nM: compound 100 nM
Outline: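 BTK levels were measured by immunoblotting of equal-protein RIPA lysates, normalized to GAPDH or β-actin, with chemiluminescent or infrared detection. Lysates came from TMD-8 cells exposed to compound for 24 h at final concentrations of 0.1, 1, 10 μM or 0.0001–0.1 μM, against a DMSO control.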

T1 sequence (Q06187 whole entry): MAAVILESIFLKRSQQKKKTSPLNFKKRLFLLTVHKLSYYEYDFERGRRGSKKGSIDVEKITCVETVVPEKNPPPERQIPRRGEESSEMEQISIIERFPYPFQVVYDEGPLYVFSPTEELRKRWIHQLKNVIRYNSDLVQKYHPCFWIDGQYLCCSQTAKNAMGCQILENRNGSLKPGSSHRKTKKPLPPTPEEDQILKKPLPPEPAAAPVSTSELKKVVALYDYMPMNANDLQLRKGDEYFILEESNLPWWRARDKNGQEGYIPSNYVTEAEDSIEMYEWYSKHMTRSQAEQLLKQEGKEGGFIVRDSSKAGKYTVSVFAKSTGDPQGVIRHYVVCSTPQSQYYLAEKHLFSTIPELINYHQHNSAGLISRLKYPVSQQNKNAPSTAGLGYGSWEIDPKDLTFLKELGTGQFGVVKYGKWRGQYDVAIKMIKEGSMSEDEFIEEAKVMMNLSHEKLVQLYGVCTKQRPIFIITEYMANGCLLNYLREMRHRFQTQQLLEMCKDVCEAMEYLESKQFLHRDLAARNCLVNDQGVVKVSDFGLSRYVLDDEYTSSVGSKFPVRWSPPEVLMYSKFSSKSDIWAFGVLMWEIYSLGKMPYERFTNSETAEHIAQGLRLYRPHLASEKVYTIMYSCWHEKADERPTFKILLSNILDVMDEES

SMILES | BTK degradation (%) 1 nM [%] | BTK degradation (%) 10 nM [%] | BTK degradation (%) 100 nM [%]
Cc1cc(-c2ccnc(Nc3ccc(N4CCN(CC5CCN(c6ccc(N7CCC(=O)NC7=O)cc6)CC5)CC4)cc3)n2)ccc1CNC(=O)N1CC(OC(C)C)C1 [Example 66, N-(4-(2-((4-(4-((1-(4-(2,4-dioxotetrahydropyrimidin-1 (2H)-yl)phenyl)piperidin-4-yl)methyl)piperazin-1-yl)phenyl)amino)pyrimidin-4-yl)-2-methylbenzyl)-3-isopropoxyazetidine-1-carboxamide] | 28.0 | 91.5 | 98.5
Cc1cc(-c2ccnc(Nc3ccc4c(c3)CN(CC3CCN(c5ccc6c(c5)C(=O)N(C5CCC(=O)NC5=O)C6=O)CC3)CC4)n2)ccc1CNC(=O)c1cnn(C(C)(C)C)c1 (centres unmarked) [Example 2, 1-(tert-butyl)-N-(4-(2-((2-((1-(2-(2,6-dioxopiperidin-3-yl)-1,3-dioxoisoindolin-5-yl)piperidin-4-yl)methyl)-1,2,3,4-tetrahydroisoquinolin-7-yl)amino)pyrimidin-4-yl)-2-methylbenzyl)-1H-pyrazole-4-carboxamide] | – | 84.5 | 94
Cc1cc(-c2ccnc(Nc3ccc(C4CCN(C5CCN(c6ccc7c(c6)C(=O)N(C6CCC(=O)NC6=O)C7=O)CC5)CC4)cc3)n2)ccc1CNC(=O)N1CC(OC(C)C)C1 (centres unmarked) [Example 110, N-(4-(2-((4-(1′-(2-(2,6-dioxopiperidin-3-yl)-1,3-dioxoisoindolin-5-yl)-[1,4′-bipiperidin]-4-yl)phenyl)amino)pyrimidin-4-yl)-2-methylbenzyl)-3-isopropoxyazetidine-1-carboxamide] | 28.0 | 92.0 | 99.5
Cc1cc(-c2ccnc(Nc3ccc(N4CCN(CC5CCN(c6cccc(N7CCC(=O)NC7=O)c6)CC5)CC4)cc3)n2)ccc1CNC(=O)c1cnn(C(C)C)c1 [Example 80, N-(4-(2-((4-(4-((1-(3-(2,4-dioxotetrahydropyrimidin-1 (2H)-yl)phenyl)piperidin-4-yl)methyl)piperazin-1-yl)phenyl)amino)pyrimidin-4-yl)-2-methylbenzyl)-1-isopropyl-1H-pyrazole-4-carboxamide] | 73.5 | 98.0 | 99.5
Cc1cc(-c2ccnc(Nc3ccc(N4CCC(C(=O)N5CCC(c6ccc(OC7CCC(=O)NC7=O)cc6)CC5)CC4)cc3)n2)ccc1CNC(=O)N1CC(OC(C)C)C1 (centres unmarked) [Example 118, N-(4-(2-((4-(4-(4-(4-((2,6-dioxopiperidin-3-yl)oxy)phenyl)piperidine-1-carbonyl)piperidin-1-yl)phenyl)amino)pyrimidin-4-yl)-2-methylbenzyl)-3-isopropoxyazetidine-1-carboxamide] | 15.0 | 68.0 | 97.5
Cc1cc(-c2ccnc(Nc3ccc(N4CCN(CC5CN(c6cc7c(cc6F)C(=O)N(C6CCC(=O)NC6=O)C7=O)C5)CC4)cc3)n2)ccc1CNC(=O)N1CC(OC(C)C)C1 (centres unmarked) [Example 13, N-(4-(2-((4-(4-((1-(2-(2,6-dioxopiperidin-3-yl)-6-fluoro-1,3-dioxoisoindolin-5-yl)azetidin-3-yl)methyl)piperazin-1-yl)phenyl)amino)pyrimidin-4-yl)-2-methylbenzyl)-3-isopropoxyazetidine-1-carboxamide] | 38 | 91 | 99
Cc1cc(-c2ccnc(Nc3ccc(N4CCN(CC5CCN(c6cccc(OC7CCC(=O)NC7=O)c6)CC5)CC4)cc3)n2)ccc1CNC(=O)N1CC(OC(C)C)C1 (centres unmarked) [Example 42, N-(4-(2-((4-(4-((1-(3-((2,6-dioxopiperidin-3-yl)oxy)phenyl)piperidin-4-yl)methyl)piperazin-1-yl)phenyl)amino)pyrimidin-4-yl)-2-methylbenzyl)-3-isopropoxyazetidine-1-carboxamide] | 60.5 | 97.5 | 100.0

More lines, now with the values ahead:

BTK degradation (%) 1 nM [%] | BTK degradation (%) 10 nM [%] | BTK degradation (%) 100 nM [%] | SMILES
59.0 | 94.5 | 99.0 | Cc1cc(-c2ccnc(Nc3ccc(N4CCC(CN5CCC(c6ccc(NC7CCC(=O)NC7=O)cc6)CC5)CC4)cc3)n2)ccc1CNC(=O)c1cnn(C(C)(C)C)c1 (centres unmarked) [Example 135, 1-(tert-butyl)-N-(4-(2-((4-(4-((4-(4-((2,6-dioxopiperidin-3-yl)amino)phenyl)piperidin-1-yl)methyl)piperidin-1-yl)phenyl)amino)pyrimidin-4-yl)-2-methylbenzyl)-1H-pyrazole-4-carboxamide]
15.0 | 70.5 | 96.5 | Cc1cc(-c2ccnc(Nc3ccc(CN4CCC(CN5CCC(c6ccc(N7CCC(=O)NC7=O)cc6)CC5)CC4)cc3)n2)ccc1CNC(=O)c1cn(C(C)(C)C)nn1 [Example 141, 1-(tert-butyl)-N-(4-(2-((4-((4-((4-(4-(2,4-dioxotetrahydropyrimidin-1 (2H)-yl)phenyl)piperidin-1-yl)methyl)piperidin-1-yl)methyl)phenyl)amino)pyrimidin-4-yl)-2-methylbenzyl)-1H-1,2,3-triazole-4-carboxamide]
22.5 | 88.0 | 99.0 | Cc1cc(-c2ccnc(Nc3ccc(CN4CCN(CC5CCN(c6ccc(N7CCC(=O)NC7=O)cc6)CC5)CC4)cc3)n2)ccc1CNC(=O)N1CC(OC(C)C)C1 [Example 68, N-(4-(2-((4-((4-((1-(4-(2,4-dioxotetrahydropyrimidin-1 (2H)-yl)phenyl)piperidin-4-yl)methyl)piperazin-1-yl)methyl)phenyl)amino)pyrimidin-4-yl)-2-methylbenzyl)-3-isopropoxyazetidine-1-carboxamide]
72.0 | 97.0 | 99.0 | Cc1cc(-c2ccnc(Nc3ccc(N4CCN(CC5CCN(c6cccc(NC7CCC(=O)NC7=O)c6)CC5)CC4)cc3)n2)ccc1CNC(=O)c1cnn(C(C)(C)C)c1 (centres unmarked) [Example 59, 1-(tert-butyl)-N-(4-(2-((4-(4-((1-(3-((2,6-dioxopiperidin-3-yl)amino)phenyl)piperidin-4-yl)methyl)piperazin-1-yl)phenyl)amino)pyrimidin-4-yl)-2-methylbenzyl)-1H-pyrazole-4-carboxamide]
26.5 | 88.0 | 99.0 | Cc1cc(-c2ccnc(Nc3ccc(N4CCC(CN5CCC(c6ccc(NC7CCC(=O)NC7=O)cc6)CC5)CC4)nc3)n2)ccc1CNC(=O)c1cn(C(C)(C)C)nn1 (centres unmarked) [Example 146, 1-(tert-butyl)-N-(4-(2-((6-(4-((4-(4-((2,6-dioxopiperidin-3-yl)amino)phenyl)piperidin-1-yl)methyl)piperidin-1-yl)pyridin-3-yl)amino)pyrimidin-4-yl)-2-methylbenzyl)-1H-1,2,3-triazole-4-carboxamide]
